Assays:
SH-SY5Y cells [1] = assay: Cytotoxicity in SH-SY5Y neuroblastoma cell line (MTT); conditions: 24 h
Protocol: (§2) Viability was measured as MTT reduction in presence of increasing concentrations of derivatives. Values are expressed as LD50 calculated from dose-response curves of four different concentrations.
(§3) Cells were cultured in 48-well (SH-SY5Y, 1x10^5 cells per well) or 96-well plates (HepG2, 1x10^5 cells per well) for 24 h. […] Control cells were incubated with the same concentration of DMSO (0.1 % final concentration) without any drug.

HepG2 cells = assay: Hepatotoxicity in HepG2 cell line (MTT); conditions: 24 h
Protocol: Thus, it is relevant to study the potential neurotoxicity and hepatotoxicity of the novel dual GSK3β inhibitors-Nrf2 inducers 5a–t.
as §2
HepG2 cells were cultured according to supplier indications in EMEM supplemented with 10 % heat-inactivated FBS, 100 µg/mL streptomycin and 100 units/mL penicillin. Cells were maintained at 37 °C in humidified atmosphere of 95 % air and 5 % CO2. For experimental procedures, cells were cultured in 96-well plates at density of 1x10^5 cells/well. Treatments were performed in 1% FBS medium unless other concentration was specified. Cells were used from 4 up to 13 passages.
as §3

primary rat glial cells = assay: Nitrite production in LPS-stimulated primary glial cultures (Griess); format: cell-based; conditions: Glial cell, 24 h pre-incubation, 18 h co-incubation with LPS 1 μg/mL, read-out: IC50 nitrite reduction
Excerpt: Therefore, we envisaged the study of compounds 5a–t as potential anti-inflammatory agents. We used primary rat glial cells treated with lipopolysaccharide (LPS) to induce the production of nitrites and ROS as a model of glial activation. Nitrite production is directly proportional to the expression of the iNOS, that is over-expressed when LPS activates glial cells. ROS production is proportional to NOX activation after stimulation with LPS. Results are summarized in Table 2 as IC50s of nitrite production reduction and ROS production reduction. We have included sulforaphane as control in all experiments (see the Supporting Information).
Glial cells were pre-incubated with increasing concentrations of compounds for 24 hours. Then, treatments were removed and cells were incubated with LPS (1 μg/mL) alone or in presence of each compound at the desired concentration. Nitrite production was assessed 18 hours later by modified Griess assay. Briefly, samples (150 μl) were mixed with dapsone (75 μl) and NEDA (75 μl), and the mixture was incubated at room temperature for 5 min. Light absorption was measured at 550 nm in a microplate reader (Labtech, Offenburg, Germany). All data were normalized to basal nitrite production, considering this value as 100% of nitrite production. IC50 values were calculated from dose-response curves represented as percentage of nitrite production reduction induced by the different concentrations of each compound.
Mixed glial cultures were obtained from cerebral cortex of 2-5 day-old Sprague-Dawley rats. After removal of blood vessels and meninges, the forebrains were dissociated in DMEM/F12 medium. After mechanical dissociation, cells were plated (3x10^5 cells/ml) in DMEM/F12 medium with 20% fetal bovine serum (FBS) and 1 % penicillin/streptomycin (10,000 units), at 37 °C and in a 5 % CO2-supplemented air atmosphere. After 5 days, medium was substituted by DMEM/F12 medium with 10 % FBS. Cells were cultured for 7-10 days before treatment.
Primary rat glial cells were treated with compounds 5a-t at increasing concentrations (3, 10, 30 and 60 µM) during 24 h. Thereafter, treatments were removed and glial cells were co-incubated with increasing concentrations of each compound and LPS (1 µg/mL) for 18 h more. At the end of this period, supernatant was collected and the presence of nitrites was analyzed by the Griess method with modifications.^20 Each plate included non-treated cells as basal nitrite production, sulforaphane (SFN, 10 µM) as positive control. Briefly, samples (150 µl) were mixed with DAPSONE (75 µl) and NEDA (75 µl), and the mixture was incubated at room temperature for 5 min. Light absorption was measured at 550 nm in a microplate reader (Labtech, Offenburg, Germany). All data were normalized to basal nitrite production, considering this value as 100% of nitrite production. EC50 values were calculated from dose-response curves represented as percentage of nitrite production reduction induced by the different concentrations of each compound. Concentration response curves were fitted by non-linear regression analysis of individual concentration-response curves using GraphPad Prism software (San Diego, CA, USA). EC50 values are expressed as mean ± SEM of four different experiments in triplicate.

SH-SY5Y cells [2] = assay: Neuroprotection against okadaic acid (tau hyperphosphorylation), MTT; format: cell-based; conditions: 1 μM, 24 h pre-incubation, 18 h co-incubation with OA 20 nM
SH-SY5Y cells [3] = assay: Neuroprotection against rotenone/oligomycin A (R/O), MTT; format: cell-based; conditions: 1 μM, 24 h pre-incubation, 24 h co-incubation with rotenone/oligomycin A 30/10 μM
Protocol: Figure 5 Compounds 5a–t exert neuroprotection in in vitro models of AD. […] Then, treatments were removed and cells were co-incubated with each treatment and okadaic acid for 18 h or R/O for 24 h. Cell viability was measured by the MTT reduction assay. Values are expressed as mean ± SEM of five independent experiments in triplicate. ***p < 0.001; **p < 0.01 respect to toxic stimuli treated cells, considered as 0% of protection.
As stated in the Introduction, oxidative stress is considered one of the main causes of neuronal death in AD. Therefore, we were interested in evaluating the potential antioxidant activity of compounds 5a–t in a model of oxidative stress and energy depletion, which in turn increase cell death. For this purpose, we selected the combination of rotenone (30 μM) and oligomycin A (10 μM) (R/O) to induce neurotoxicity as a model system[23][40] to evaluate the potential neuroprotective activity of the compounds. Melatonin, a well-known antioxidant natural compound, was included as a positive control.
(§1) A pre- and co-incubation protocol was followed. Cells were pre-incubated with the corresponding compound at 1 μM in neuroblastoma cells culture medium. After 24 h, medium was removed and replaced with 1% FBS neuroblastoma culture media containing the corresponding compound (1 μM) and the toxic stimuli, the mixture of rotenone and oligomycin A (30 μM/10 μM respectively) or okadaic acid at 20 nM. Cells were co-incubated for further 24 h with the rotenone and oligomycin A solution or 18 h with the okadaic acid solution. Control cells were incubated with the same amount of DMSO without any drug. After the co-incubation period, cell viability was assessed by the MTT-reduction method.
as §1, with “A pre” for “A pre-”, “1 µM” for “1 μM”, “compound at 1 µM” for “compound (1 μM)”, “stimuli, namely a” for “stimuli, the”, “(30 µM / 10 µM” for “(30 μM/10 μM”, “drug. […]” for “drug.”
The percentage of protection was calculated as follows: the percentage of cell survival obtained with the toxic stimuli-treated cells subtracted to 100 was normalized to 100 % of cell death. The percentage of protection was obtained by subtracting the percentage of cell death in presence of the tested compound to 100%.

Structure (SMILES)	SH-SY5Y LD50 (SH-SY5Y cells [1]) [µM]	HepG2 LD50 (HepG2 cells) [µM]	IC50 (primary rat glial cells) [µM]	Percentage of protection against okadaic acid toxicity (SH-SY5Y cells [2])	Percentage of protection against R/O toxicity (SH-SY5Y cells [3]) [%]
Cc1[nH]nc2c1C(c1ccccc1)C(C#N)=C(N)O2 (centres unmarked) [Compound 5a, 6-Amino-3-methyl-4-phenyl-2,4-dihydropyrano[2,3-c]pyrazole-5-carbonitrile]	> 100	> 100	> 60	27.7%	–
COc1ccccc1C1C(C#N)=C(N)Oc2n[nH]c(C)c21 (centres unmarked) [Compound 5b, 6-Amino-4-(2-methoxyphenyl)-3-methyl-2,4-dihydropyrano[2,3-c]pyrazole-5-carbonitrile]	> 100	> 100	43.6 ± 6.45	–	39.1
COc1ccc(C2C(C#N)=C(N)Oc3n[nH]c(C)c32)cc1 (centres unmarked) [Compound 5d, 6-Amino-4-(4-methoxyphenyl)-3-methyl-2,4-dihydropyrano[2,3-c]pyrazole-5-carbonitrile]	> 100	> 100	35.4 ± 2.57	–	38.8
Cc1ccccc1C1C(C#N)=C(N)Oc2[nH]nc(C)c21 (centres unmarked) [Compound 5e, 6-Amino-3-methyl-4-(2-methylphenyl)-2,4-dihydropyrano[2,3-c]pyrazole-5-carbonitrile]	> 100	> 100	34.3 ± 3.84	–	–
Cc1cccc(C2C(C#N)=C(N)Oc3n[nH]c(C)c32)c1 (centres unmarked) [Compound 5f, 6-Amino-3-methyl-4-(3-methylphenyl)-2,4-dihydropyrano[2,3-c]pyrazole-5-carbonitrile]	> 100	> 100	13.4 ± 1.44	over 50%	–
Cc1ccc(C2C(C#N)=C(N)Oc3[nH]nc(C)c32)cc1 (centres unmarked) [Compound 5g, 6-Amino-3-methyl-4-(4-methylphenyl)-2,4-dihydropyrano[2,3-c]pyrazole-5-carbonitrile]	> 100	> 100	22.3 ± 3.82	–	–
Cc1n[nH]c2c1C(c1ccc(F)cc1)C(C#N)=C(N)O2 (centres unmarked) [Compound 5h, 6-Amino-4-(4-fluorophenyl)-3-methyl-2,4-dihydropyrano[2,3-c]pyrazole-5-carbonitrile]	> 100	> 100	11.3 ± 1.15	–	–
Cc1n[nH]c2c1C(c1ccccc1Cl)C(C#N)=C(N)O2 (centres unmarked) [Compound 5i, 6-Amino-4-(2-chlorophenyl)-3-methyl-2,4-dihydropyrano[2,3-c]pyrazole-5-carbonitrile]	> 100	> 100	> 60	–	–
Cc1[nH]nc2c1C(c1cccc(Cl)c1)C(C#N)=C(N)O2 (centres unmarked) [Compound 5j, 6-Amino-4-(3-chlorophenyl)-3-methyl-2,4-dihydropyrano[2,3-c]pyrazole-5-carbonitrile]	> 100	> 100	5.11 ± 0.65	–	–
Cc1n[nH]c2c1C(c1ccc(Cl)cc1)C(C#N)=C(N)O2 (centres unmarked) [Compound 5k, 6-Amino-4-(4-chlorophenyl)-3-methyl-2,4-dihydropyrano[2,3-c]pyrazole-5-carbonitrile]	> 100	> 100	26 ± 2.74	–	–
Cc1n[nH]c2c1C(c1ccccc1Br)C(C#N)=C(N)O2 (centres unmarked) [Compound 5l, 6-Amino-4-(2-bromophenyl)-3-methyl-2,4-dihydropyrano[2,3-c]pyrazole-5-carbonitrile]	> 100	> 100	26.7 ± 1.95	–	24.1
Cc1[nH]nc2c1C(c1ccccc1[N+](=O)[O-])C(C#N)=C(N)O2 (centres unmarked) [Compound 5n, 6-Amino-3-methyl-4-(2-nitrophenyl)-2,4-dihydropyrano[2,3-c]pyrazole-5-carbonitrile]	> 100	> 100	15.8 ± 5.23	34.7%	–
Cc1[nH]nc2c1C(c1cccc([N+](=O)[O-])c1)C(C#N)=C(N)O2 (centres unmarked) [Compound 5o, 6-Amino-3-methyl-4-(3-nitrophenyl)-2,4-dihydropyrano[2,3-c]pyrazole-5-carbonitrile]	> 100	> 100	40.8 ± 2.23	48%	–
Cc1[nH]nc2c1C(c1ccc([N+](=O)[O-])cc1)C(C#N)=C(N)O2 (centres unmarked) [Compound 5p, 6-Amino-3-methyl-4-(4-nitrophenyl)-2,4-dihydropyrano[2,3-c]pyrazole-5-carbonitrile]	> 100	> 100	26.7 ± 4.86	–	–
Cc1n[nH]c2c1C(c1ccco1)C(C#N)=C(N)O2 (centres unmarked) [Compound 5q, 6-Amino-4-(furan-2-yl)-3-methyl-2,4-dihydropyrano[2,3-c]pyrazole-5-carbonitrile]	> 100	> 100	17.5 ± 2.45	–	–
Cc1n[nH]c2c1C(c1cccs1)C(C#N)=C(N)O2 (centres unmarked) [Compound 5r, 6-Amino-3-methyl-4-(thiophen-2-yl)-2,4-dihydropyrano[2,3-c]pyrazole-5-carbonitrile]	> 100	> 100	> 60	–	–
Cc1[nH]nc2c1C(c1cccnc1)C(C#N)=C(N)O2 (centres unmarked) [Compound 5s, 6-Amino-3-methyl-4-(pyridin-3-yl)-2,4-dihydropyrano[2,3-c]pyrazole-5-carbonitrile]	> 100	> 100	7.23 ± 1.1	–	57.9

Source: article PMC5374710, “Discovery of the first dual GSK3β inhibitor/Nrf2 inducer. A new multitarget therapeutic strategy for Alzheimer’s disease” (Scientific Reports, 2017)
